Here are results for one compound from paper PMC3076313 (Bioorganic chemistry, 2010).

The target in assay [1] is T1, semisynthetic p300 HAT (wt p300 HAT) (Homo sapiens, UniProt Q09472).
T1 sequence (Q09472 1287-1663 limits assumed): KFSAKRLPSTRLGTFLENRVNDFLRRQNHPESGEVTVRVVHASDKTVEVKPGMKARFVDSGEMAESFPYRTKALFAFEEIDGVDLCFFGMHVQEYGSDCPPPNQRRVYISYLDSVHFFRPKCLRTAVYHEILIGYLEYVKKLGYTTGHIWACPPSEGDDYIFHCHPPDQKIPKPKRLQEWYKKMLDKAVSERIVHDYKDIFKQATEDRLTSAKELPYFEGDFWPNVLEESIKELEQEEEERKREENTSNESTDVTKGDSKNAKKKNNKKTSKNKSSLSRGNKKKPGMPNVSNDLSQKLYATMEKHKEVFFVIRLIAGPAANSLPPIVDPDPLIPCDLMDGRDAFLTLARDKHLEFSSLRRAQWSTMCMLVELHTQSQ
Conditions: 20 μM acetyl-CoA, 100 μM H4-15 peptide, 7 min pre-incubation, 30°C.

Assay [2] deals with p300 HAT. The conditions noted are these: p300 HAT inhibitor; cited from earlier work.
For assay [3], the target named is T2, D1625R/D1628R double mutant of p300 HAT (Homo sapiens, UniProt Q09472, D1625R/D1628R).
T2 sequence (Q09472 1287-1663 D1625R/D1628R limits assumed): T1 sequence (Q09472 1287-1663 limits assumed) with D339R, D342R
The assay is described as follows: p300 HAT radioactive acetyltransferase inhibition assay, double mutant enzyme.

Each structure is given as a SMILES string. Where a chain is given by its changes, count along the chain named.

A word on the IC50: it is the concentration needed to halve the response being measured. Usually Ki stands for the dissociation constant of the complex between target and ligand, obtained from inhibition or displacement. As for `CC(=O)N[C@@H](CCCCNC(=O)CSCCNC(=O)CCNC(=O)[C@H](O)C(C)(C)COP(=O)(O)OP(=O)(O)OC[C@H]1O[C@@H](n2cnc3c(N)ncnc32)[C@H](O)[C@@H]1OP(=O)(O)O)C(N)=O` [Lys-CoA], the IC50 in assay [1] came to 0.06 µM; in assay [3] (D1625R, D1628R p300 HAT, 20 μM acetyl-CoA, 100 μM H4-15 peptide), 0.209 ± 0.015 µM. The Ki in assay [2] was 0.02 µM. In addition, the “fold weakening of IC50 with D1625R/D1628R p300 HAT compared with wt p300 HAT” value in assay [3] (double mutant vs wt) stood at 3.5 fold.
